pIC50: −log10 of the molar value.
Key:
HCC827 = test: Antiproliferative activity against human HCC827 cells harboring EGFR Del19 mutant assessed as inhibition of cell growth incubated for 48 to 72 hrs by CCK-8 assay; type: functional, cell-based
NCI-H1975 = test: Antiproliferative activity against human NCI-H1975 cells harboring EGFR L858R/T790M double mutant assessed as inhibition of cell growth incubated for 48 to 72 hrs by CCK-8 assay; type: functional, cell-based
[1] = Antiproliferative activity against human H1975-TM cells harboring EGFR L858R/T790M/C797S mutant assessed as inhibition of cell growth incubated for 48 to 72 hrs by CCK-8 assay; type: functional, cell-based
A-431 = test: Antiproliferative activity against human A-431 cells harboring EGFR wild type assessed as inhibition of cell growth incubated for 48 to 72 hrs by CCK-8 assay; type: functional, cell-based
A549 = test: Antiproliferative activity against human A549 cells harboring EGFR wild type assessed as inhibition of cell growth incubated for 48 to 72 hrs by CCK-8 assay; type: functional, cell-based
[2] = target: von Hippel-Lindau disease tumor suppressor/Epidermal growth factor receptor (Homo sapiens, UniProt P00533+P40337); test: PROTAC activity at VHL/EGFR Del19 mutant in human HCC827 cells assessed as induction of EGFR degradation incubated for 72 hrs by Western blot analysis; type: cell-based
[3] = tested on: von Hippel-Lindau disease tumor suppressor/Epidermal growth factor receptor (Homo sapiens), P00533+P40337 [UNDEFINED MUTATION]; test: PROTAC activity at VHL/EGFR Del19 mutant in human HCC827 cells assessed as maximal EGFR degradation at 3.125 to 200 nM incubated for 72 hrs by Western blot analysis relative to control; type: cell-based; conditions: dose 3.125-200 nM
[4] = target: von Hippel-Lindau disease tumor suppressor/Epidermal growth factor receptor (Homo sapiens, UniProt P00533+P40337, T790M/L858R); test: PROTAC activity at VHL/EGFR L858R/T790M mutant in human NCI-H1975 cells assessed as induction of EGFR degradation incubated for 72 hrs by Western blot analysis; type: cell-based
[5] = tested on: von Hippel-Lindau disease tumor suppressor/Epidermal growth factor receptor (Homo sapiens), P00533+P40337 [L858R,T790M]; test: PROTAC activity at VHL/EGFR L858R/T790M mutant in human NCI-H1975 cells assessed as maximal EGFR degradation at 0.15 to 10 uM incubated for 72 hrs by Western blot analysis relative to control; type: cell-based; conditions: dose 0.15-10 µM

Chain of von Hippel-Lindau disease tumor suppressor/Epidermal growth factor receptor (Homo sapiens, UniProt P00533+P40337, T790M/L858R) (P00533 25-1210 T790M/L858R limits assumed, stated change not applied): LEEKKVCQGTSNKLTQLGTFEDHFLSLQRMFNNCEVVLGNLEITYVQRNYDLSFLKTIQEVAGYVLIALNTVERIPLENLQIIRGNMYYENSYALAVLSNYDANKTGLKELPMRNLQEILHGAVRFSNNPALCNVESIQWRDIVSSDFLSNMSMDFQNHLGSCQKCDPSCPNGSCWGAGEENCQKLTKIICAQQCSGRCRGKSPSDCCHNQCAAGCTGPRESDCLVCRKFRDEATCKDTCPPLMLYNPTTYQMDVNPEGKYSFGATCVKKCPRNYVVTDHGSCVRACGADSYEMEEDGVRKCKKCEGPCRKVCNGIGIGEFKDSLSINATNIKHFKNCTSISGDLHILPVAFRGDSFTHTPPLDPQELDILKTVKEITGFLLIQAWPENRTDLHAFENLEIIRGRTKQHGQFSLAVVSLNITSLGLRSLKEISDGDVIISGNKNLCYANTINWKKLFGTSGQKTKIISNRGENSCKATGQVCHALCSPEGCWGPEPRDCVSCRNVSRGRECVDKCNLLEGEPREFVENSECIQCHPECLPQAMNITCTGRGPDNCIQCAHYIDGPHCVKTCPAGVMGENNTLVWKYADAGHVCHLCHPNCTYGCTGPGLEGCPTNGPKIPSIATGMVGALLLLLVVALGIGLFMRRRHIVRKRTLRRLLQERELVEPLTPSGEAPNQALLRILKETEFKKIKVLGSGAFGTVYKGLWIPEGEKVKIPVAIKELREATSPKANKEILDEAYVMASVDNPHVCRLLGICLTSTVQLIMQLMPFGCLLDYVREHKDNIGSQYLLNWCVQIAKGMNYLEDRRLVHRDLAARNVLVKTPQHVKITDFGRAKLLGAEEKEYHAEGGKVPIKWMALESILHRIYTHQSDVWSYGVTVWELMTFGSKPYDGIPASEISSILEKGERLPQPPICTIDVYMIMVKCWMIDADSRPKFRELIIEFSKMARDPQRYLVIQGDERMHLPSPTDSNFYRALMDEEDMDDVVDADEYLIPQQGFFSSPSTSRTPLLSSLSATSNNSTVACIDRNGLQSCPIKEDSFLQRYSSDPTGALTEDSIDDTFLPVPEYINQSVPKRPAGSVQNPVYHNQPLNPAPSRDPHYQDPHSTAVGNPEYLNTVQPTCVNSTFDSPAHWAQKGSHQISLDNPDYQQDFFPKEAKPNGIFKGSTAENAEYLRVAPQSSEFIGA
Chain of von Hippel-Lindau disease tumor suppressor/Epidermal growth factor receptor (Homo sapiens, UniProt P00533+P40337, T790M/L858R) (P40337 whole entry, stated change not applied): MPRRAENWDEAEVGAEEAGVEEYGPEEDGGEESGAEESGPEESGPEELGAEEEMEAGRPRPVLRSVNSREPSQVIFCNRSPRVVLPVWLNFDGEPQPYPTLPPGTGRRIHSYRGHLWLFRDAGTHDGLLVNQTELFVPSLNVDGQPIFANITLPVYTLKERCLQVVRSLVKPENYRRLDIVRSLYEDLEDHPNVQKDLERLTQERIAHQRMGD
Chain of von Hippel-Lindau disease tumor suppressor/Epidermal growth factor receptor (Homo sapiens, UniProt P00533+P40337) (P00533 whole entry, looked up, stated change not applied): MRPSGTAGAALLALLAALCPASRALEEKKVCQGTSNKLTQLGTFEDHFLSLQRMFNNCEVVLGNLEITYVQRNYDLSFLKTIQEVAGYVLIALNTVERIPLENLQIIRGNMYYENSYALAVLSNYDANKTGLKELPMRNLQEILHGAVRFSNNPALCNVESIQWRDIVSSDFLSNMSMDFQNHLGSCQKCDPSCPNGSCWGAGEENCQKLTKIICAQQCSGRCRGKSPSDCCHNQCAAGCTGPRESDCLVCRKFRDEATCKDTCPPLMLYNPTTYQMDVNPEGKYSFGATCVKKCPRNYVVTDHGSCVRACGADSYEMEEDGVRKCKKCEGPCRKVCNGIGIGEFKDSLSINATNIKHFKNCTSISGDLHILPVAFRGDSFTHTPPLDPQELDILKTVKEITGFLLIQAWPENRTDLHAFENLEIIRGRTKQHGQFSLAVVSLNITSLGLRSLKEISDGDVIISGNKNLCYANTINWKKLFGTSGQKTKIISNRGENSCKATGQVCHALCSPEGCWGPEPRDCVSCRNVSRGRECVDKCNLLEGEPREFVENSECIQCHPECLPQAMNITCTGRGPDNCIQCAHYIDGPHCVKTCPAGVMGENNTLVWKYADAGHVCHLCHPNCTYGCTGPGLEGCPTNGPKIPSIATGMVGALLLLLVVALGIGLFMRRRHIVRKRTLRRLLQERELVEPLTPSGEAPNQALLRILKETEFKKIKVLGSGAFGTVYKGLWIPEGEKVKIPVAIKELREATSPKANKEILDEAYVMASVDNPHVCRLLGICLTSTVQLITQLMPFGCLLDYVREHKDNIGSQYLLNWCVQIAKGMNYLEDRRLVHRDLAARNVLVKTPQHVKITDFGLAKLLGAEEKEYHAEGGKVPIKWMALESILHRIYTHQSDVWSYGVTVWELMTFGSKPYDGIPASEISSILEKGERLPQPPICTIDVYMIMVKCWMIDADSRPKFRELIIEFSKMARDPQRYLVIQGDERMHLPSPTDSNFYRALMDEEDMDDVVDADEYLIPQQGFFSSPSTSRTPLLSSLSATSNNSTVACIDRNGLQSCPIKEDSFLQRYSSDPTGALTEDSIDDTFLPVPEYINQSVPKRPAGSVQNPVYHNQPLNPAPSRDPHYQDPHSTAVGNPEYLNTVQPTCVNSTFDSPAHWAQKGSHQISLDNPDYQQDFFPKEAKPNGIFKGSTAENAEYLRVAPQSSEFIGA
Chain of von Hippel-Lindau disease tumor suppressor/Epidermal growth factor receptor (Homo sapiens, UniProt P00533+P40337) (P40337 whole entry, looked up, stated change not applied): as the sequence (P40337 whole entry, stated change not applied) above
Chain of von Hippel-Lindau disease tumor suppressor/Epidermal growth factor receptor (Homo sapiens), P00533+P40337 [UNDEFINED MUTATION] (P00533 whole entry, looked up, stated change not applied): as the sequence (P00533 whole entry, looked up, stated change not applied) above
Chain of von Hippel-Lindau disease tumor suppressor/Epidermal growth factor receptor (Homo sapiens), P00533+P40337 [UNDEFINED MUTATION] (P40337 whole entry, looked up, stated change not applied): as the sequence (P40337 whole entry, stated change not applied) above

SMILES: CCN(CC)C/C=C/C(=O)Nc1cc2c(Nc3ccc(F)c(Cl)c3)ncnc2cc1OCc1cn(CCCCCCCCCCC(=O)N[C@H](C(=O)N2C[C@H](O)C[C@H]2C(=O)NCc2ccc(-c3scnc3C)cc2)C(C)(C)C)nn1
- pIC50 (HCC827): 7.82
- pIC50 (NCI-H1975): 6.42
- pIC50 [1]: < 4.70
- pIC50 (A-431): < 4.70
- pIC50 (A549): < 4.70
- DC50 [2]: 28.7 nM
- Emax [3]: 99%
- DC50 [4]: 380 nM
- Emax [5]: 93%

Reference: ChEMBL document CHEMBL5523716, “Discovery of novel EGFR-PROTACs capable of degradation of multiple EGFR-mutated proteins” (Eur J Med Chem, 2024)
